Measured values: article PMC11091072, “Targeting bacterial nickel transport with aspergillomarasmine A suppresses virulence-associated Ni-dependent enzymes” (Nature Communications, 2024)
Where “and” joins values, the source holds several entries; their conditions need not be identical. Identical values can stand only once. Like-named read-outs stand apart in the source and are kept apart here.

Columns and labels:
[1] = tested on: K. pneumoniae urease activity (whole cell); test: microbe, parasite or virus in culture; type: cell-based, Klebsiella pneumoniae ATCC 33495; conditions: artificial urine, 24 h; for K. pneumoniae urease-dependent pH change (pH): 37 °C
[2] = tested on: S. aureus urease activity (whole cell); type: cell-based, Staphylococcus aureus; conditions: artificial urine, 24 h; for Staphylococcus aureus urease-dependent pH change (pH): 37 °C
[3] = tested on: struvite crystallization in K. pneumoniae cultures; test: Struvite crystal nucleation in artificial urine cultures; type: cell-based, Klebsiella pneumoniae
Source text: A The metal complexed structure, selectivity, and affinity of AMA. The constituents of AMA are labeled L-aspartate (L-Asp) and 2,3-diaminopropionic acid (APA). B Dose-response urease inhibition assays in K. pneumoniae. […] C Dose-response effect of AMA and Zn-AMA on the nucleation of struvite crystals in K. pneumoniae cultures grown in artificial urine. Crystals were examined microscopically in 96-well plates and visually quantified. […] The data represent the representative mean of two replicates. D Quantification of planktonic growth and crystal violet-stained biofilms of K. pneumoniae grown in artificial urine and varying concentrations of Zn-AMA. […] Data represent mean ± s.d. of four technical replicates. E ICP-MS quantification of cellular ^60Ni and ^66Zn content in K. pneumoniae untreated or treated with 200 μM AMA, or Zn-AMA. […] Whole-cell hydrogenase assays were performed by adding benzyl viologen (BV) at a final concentration of 1 mg/mL and monitoring its reduction at an absorbance of 630 nm. Data represent the mean of two technical replicates.
FIG S5 Microscopic detection of struvite crystals grown in artificial urine cultures of K. pneumoniae. Top row, the concentration-dependent effect of AMA on struvite formation. Bottom row, the concentration-dependent effect of Zn-AMA on struvite formation.
Bacteria were grown in 96 well flat-bottom plates for 24h at 37 °C. Brightfield micrographs were taken with a BioTek Cytation cell imaging reader at 4x magnification. Four images were taken per well and were digitally stitched to generate whole-well images. […]

[4] = tested on: cellular Ni and Zn content of K. pneumoniae; test: Cellular metal analysis by ICP-MS (60Ni, 66Zn); type: cell-based, Klebsiella pneumoniae
Procedure: The cellular Zn^2+ and Ni^2+ content of K. pneumoniae was carried out according to the method described by Maunders et al.[66] with some modifications. An overnight culture of K. pneumoniae was diluted 1/200 in LB medium (5 mL) and was either untreated or treated with 0.2 mM AMA or Zn-AMA. The cells were grown for 16 h at 37 °C, harvested by centrifugation, and washed twice with PBS containing 5 mM EDTA and twice with ultra-pure water. The cell pellet was subsequently digested in 0.25 mL 65% HNO3 at 80 °C for 30 minutes in borosilicate glass tubes using a water bath. The samples were diluted to 2% HNO3 and filtered through a 0.45 μm syringe filter. ^60Ni and ^66Zn were quantified using a Thermo iCAP Q ICP-MS.

[5] = tested on: [NiFe]-hydrogenase (Hyd-3); test: Whole-cell [NiFe] hydrogenase assay (benzyl viologen reduction); type: cell-based, Klebsiella pneumoniae; parameters: Benzyl viologen hydrogenase assay (activity): unit not given here
Source text: We reasoned that disruption of Ni^2+ uptake and homeostasis should also perturb the activity of other Ni-dependent enzymes. To examine this possibility, we tested the effects of free AMA and Zn-AMA on Ni-dependent hydrogen metabolism in bacteria. […] K. pneumoniae produces a single [NiFe]-hydrogenase (Hyd-3) as part of the H2-evolving formate hydrogenlyase (FHL) complex and is encoded by the hyc operon (Fig S8)[21]. […] To measure [NiFe]-hydrogenase-catalyzed H2 […], benzyl viologen was used as an artificial electron acceptor, as previously described. Although Hyd-3 is involved in the evolution of H2, previous work in E. coli has shown that it is responsible for 90% of the hydrogen-dependent benzyl viologen reduction in crude extracts and whole-cell assays[41]–[44].
The whole-cell hydrogenase activity in K. pneumoniae was based on a modified method described by Lacasse et al.[41] […] The cell suspension was diluted 1/100 in LB supplemented with 0.8% glucose, 10 mM MgCl2, and 10 mM potassium phosphate, pH 7.2. […] Following an 18-hour incubation, whole-cell [NiFe] hydrogenase activity was monitored by adding benzyl viologen (1 mg/mL) to each well, followed by continuous monitoring of the change in absorbance at 630 nm using a BioTek Synergy H1 microplate reader in an anaerobic glove box.

[6] = tested on: K. pneumoniae; type: cell-based, Klebsiella pneumoniae; conditions: 200 μM, 24 h exposure
[7] = tested on: S. aureus; type: cell-based, Staphylococcus aureus; conditions: 200 μM, 24 h
[8] = tested on: HEK293 cells; test: HEK293 cytotoxicity assay (Cell Titer Glo 2.0)
[9] = K. pneumoniae treated with 200 μM

SMILES: N[C@@H](CN[C@@H](CN[C@@H](CC(=O)O)C(=O)O)C(=O)O)C(=O)O [AMA, aspergillomarasmine A]
- K. pneumoniae urease-dependent pH change (pH) ([1]; 0.19 μM): 8.15 and 8.19
- K. pneumoniae urease-dependent pH change (pH) ([1]; 0.39 μM): 8.16 and 8.12
- K. pneumoniae urease-dependent pH change (pH) ([1]; 0.78 μM): 8.08 and 8.03
- K. pneumoniae urease-dependent pH change (pH) ([1]; 1.56 μM): 7.97 and 7.75
- K. pneumoniae urease-dependent pH change (pH) ([1]; 3.12 μM): 7.86 and 7.57
- K. pneumoniae urease-dependent pH change (pH) ([1]; 6.25 μM): 7.81 and 7.46
- K. pneumoniae urease-dependent pH change (pH) ([1]; 12.5 μM): 7.78 and 7.33
- K. pneumoniae urease-dependent pH change (pH) ([1]; 25 μM): 7.75 and 7.40
- K. pneumoniae urease-dependent pH change (pH) ([1]; 50 μM): 7.87 and 7.54
- K. pneumoniae urease-dependent pH change (pH) ([1]; 100 μM): 8.02 and 7.77
- K. pneumoniae urease-dependent pH change (pH) ([1]; 200 μM): 8.03 and 8.04
- effect on urease activity ([1]; K. pneumoniae): did not significantly affect urease activity
- Staphylococcus aureus urease-dependent pH change (pH) ([2]; 0.19 μM): 6.95 and 7.25
- Staphylococcus aureus urease-dependent pH change (pH) ([2]; 0.39 μM): 6.96 and 7.10
- Staphylococcus aureus urease-dependent pH change (pH) ([2]; 0.78 μM): 6.77 and 6.94
- Staphylococcus aureus urease-dependent pH change (pH) ([2]; 1.56 μM): 6.69 and 6.68
- Staphylococcus aureus urease-dependent pH change (pH) ([2]; 3.12 μM): 6.42 and 6.51
- Staphylococcus aureus urease-dependent pH change (pH) ([2]; 6.25 μM): 6.40 and 6.45
- Staphylococcus aureus urease-dependent pH change (pH) ([2]; 12.5 μM): 6.33 and 6.40
- Staphylococcus aureus urease-dependent pH change (pH) ([2]; 25 μM): 6.33 and 6.38
- Staphylococcus aureus urease-dependent pH change (pH) ([2]; 50 μM): 6.38
- Staphylococcus aureus urease-dependent pH change (pH) ([2]; 100 μM): 6.31 and 6.37
- Staphylococcus aureus urease-dependent pH change (pH) ([2]; 200 μM): 6.35 and 6.38
- effect on urease activity ([2]; S. aureus): inhibited urease activity similarly
- Struvite crystal quantification (count) ([3]; 3.12 μM): 59 and 42
- Struvite crystal quantification (count) ([3]; 6.25 μM): 99 and 82
- Struvite crystal quantification (count) ([3]; 12 μM): 74 and 95
- Struvite crystal quantification (count) ([3]; 25 μM): 68 and 103
- Struvite crystal quantification (count) ([3]; 50 μM): 72 and 91
- Struvite crystal quantification (count) ([3]; 100 μM): 70 and 83
- Struvite crystal quantification (count) ([3]; 200 μM): 36 and 49
- effect on intracellular Ni^2+ levels ([4]; 200 μM, ICP-MS): reduced intracellular Ni^2+ levels
- effect on intracellular Zn^2+ levels ([4]; 200 μM, ICP-MS): without affecting Zn^2+ levels
- ICP-MS cellular Ni [4, 9]: 2.92 µM and 2.63 µM
- ICP-MS cellular Zn [4, 9]: 0.75 µM and 0.88 µM
- Benzyl viologen hydrogenase assay (activity) ([5]; 1.5625 μM): 10.01 and 8.89
- Benzyl viologen hydrogenase assay (activity) ([5]; 3.125 μM): 10.26 and 7.90
- Benzyl viologen hydrogenase assay (activity) ([5]; 6.25 μM): 10.55 and 8.44
- Benzyl viologen hydrogenase assay (activity) ([5]; 12.5 μM): 10.31 and 8.59
- Benzyl viologen hydrogenase assay (activity) ([5]; 25 μM): 10.36 and 8.93
- Benzyl viologen hydrogenase assay (activity) ([5]; 50 μM): 9.47 and 8.79
- Benzyl viologen hydrogenase assay (activity) ([5]; 100 μM): 9.67 and 7.85
- Benzyl viologen hydrogenase assay (activity) ([5]; 200 μM): 9.18 and 9.08
- Benzyl viologen hydrogenase assay (activity) ([5]; 400 μM): 9.38 and 7.95
- effect on [NiFe]-hydrogenase activity ([5]; LB-glucose, anaerobic, whole cell): no impact on [NiFe]-hydrogenase activity
- bacterial viability (spot dilutions) [6]: do not affect bacterial viability
- bacterial viability (spot dilutions) [7]: not lethal to bacteria
- cytotoxicity toward HEK293 ([8]; 48 h, up to 512 μg/mL (~1.4 mM)): no significant cytotoxicity
- IC50 (HEK293 viability) ([8]; 48 h, highest tested 512 µg/mL (MG-132 62.5 µg/mL), Zn and Ni values of low confidence): Does no t fit to the mo del
- HEK 293T cytotoxicity assay raw signal ([8]; AMA 0.5 μg/mL): 625667 and 666020 and 709951
- HEK 293T cytotoxicity assay raw signal ([8]; AMA 1 μg/mL): 642619 and 585959 and 657816
- HEK 293T cytotoxicity assay raw signal ([8]; AMA 2 μg/mL): 663671 and 698910 and 700863
- HEK 293T cytotoxicity assay raw signal ([8]; AMA 4 μg/mL): 595054 and 606045 and 670753
- HEK 293T cytotoxicity assay raw signal ([8]; AMA 8 μg/mL): 579865 and 576275 and 764893
- HEK 293T cytotoxicity assay raw signal ([8]; AMA 16 μg/mL): 628738 and 611425 and 704710
- HEK 293T cytotoxicity assay raw signal ([8]; AMA 32 μg/mL): 627377 and 612979 and 683402
- HEK 293T cytotoxicity assay raw signal ([8]; AMA 64 μg/mL): 591894 and 576108 and 744283
- HEK 293T cytotoxicity assay raw signal ([8]; AMA 128 μg/mL): 558480 and 565965 and 608380
- HEK 293T cytotoxicity assay raw signal ([8]; AMA 256 μg/mL): 567074 and 538238 and 648309
- HEK 293T cytotoxicity assay raw signal ([8]; AMA 512 μg/mL): 571681 and 577586 and 600345
